Measurements as given in patent US20080226624A1, “Combined treatment of cancer by urokinase inhibition and a cytostatic anti-cancer agent for enhancing the anti-metastatic effect” (priority 2007, published 2008).

Key:
uPA = uPA (Homo sapiens, UniProt P00749); conditions: L-confirmation; cited from earlier work
plasmin = plasmin (Homo sapiens, UniProt P00747); conditions: L-confirmation; cited from earlier work
tumor cell invasion = conditions: cited from earlier work
BN472 rat mammary tumors = tested on: BN472 rat mammary tumors
Experimental: Small tumor cubes (2×2×2 mm) were prepared from a tumor grown in a donor rat and implanted orthotopically under the fat pad of the mammary gland.
The effects of treatments on body weight and tumor load were evaluated twice weekly. The final evaluation was done at the end of the therapy period after all rats had been sacrificed. Graphical evaluations of the endpoints considered, i.e., tumor size and weight, axillary lymph-node weights, the number of macroscopic lung foci, and the weights of the thymus, uterus, spleen and liver, are depicted in FIGS. 3, 3a, 3b, 3c, 3d and 3e.

[1] = irinotecan mono-therapy, both doses (2 and 6 mg/kg daily i.p.)

Sequence of plasmin (P00747 581-810 limits assumed, species assumed): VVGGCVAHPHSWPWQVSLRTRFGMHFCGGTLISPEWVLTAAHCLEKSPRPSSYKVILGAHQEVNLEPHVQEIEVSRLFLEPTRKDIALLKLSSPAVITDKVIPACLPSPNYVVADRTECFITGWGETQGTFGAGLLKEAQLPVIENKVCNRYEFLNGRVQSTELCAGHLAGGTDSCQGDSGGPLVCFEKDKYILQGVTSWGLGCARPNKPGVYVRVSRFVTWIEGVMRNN
Sequence of plasmin (P00747 97-580 partner limits assumed, species assumed): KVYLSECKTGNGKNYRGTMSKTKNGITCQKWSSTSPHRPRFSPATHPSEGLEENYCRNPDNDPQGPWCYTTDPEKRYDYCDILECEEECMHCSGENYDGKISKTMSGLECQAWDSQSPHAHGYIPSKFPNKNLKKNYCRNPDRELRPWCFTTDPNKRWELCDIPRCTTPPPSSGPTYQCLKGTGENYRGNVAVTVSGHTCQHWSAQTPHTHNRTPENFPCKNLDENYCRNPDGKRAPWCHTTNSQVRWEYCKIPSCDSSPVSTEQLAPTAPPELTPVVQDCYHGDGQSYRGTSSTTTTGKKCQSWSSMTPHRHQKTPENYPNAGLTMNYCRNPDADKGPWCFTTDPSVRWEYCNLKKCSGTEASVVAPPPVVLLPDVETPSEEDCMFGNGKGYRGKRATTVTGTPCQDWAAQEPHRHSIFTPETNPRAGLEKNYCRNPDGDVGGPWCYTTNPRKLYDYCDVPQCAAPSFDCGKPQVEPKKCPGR

| Compound | Ki values, inhibition of uPA (uPA) | Ki values, inhibition of plasmin (plasmin) | tumor cell invasion in vitro (tumor cell invasion) | tolerability (daily observations during the treatment period) (BN472 rat mammary tumors; WX-671 0.3 mg/kg daily p.o., irinotecan 2 or 6 mg/kg daily i.p.) | axillary lymph-nodes weight (BN472 rat mammary tumors; [1]) | number of lung foci (BN472 rat mammary tumors; [1]) | tumor growth (BN472 rat mammary tumors; irinotecan mono-therapy, daily i.p.) |
| --- | --- | --- | --- | --- | --- | --- | --- |
| CCOC(=O)N1CCN(C(=O)[C@H](Cc2cccc(C(=N)N)c2)NS(=O)(=O)c2c(C(C)C)cc(C(C)C)cc2C(C)C)CC1 [WX-UK1, N[alpha]-(2,4,6-triisopropylphenylsulfonyl)-3-amidino-(L)-phenylalanine 4-ethoxycarbonylpiperazide] | low- or sub-micromoles range | low- or sub-micromoles range | suppress tumor cell invasion in vitro | – | – | – | – |
| CCc1c2c(nc3ccc(OC(=O)N4CCC(N5CCCCC5)CC4)cc13)-c1cc3c(c(=O)n1C2)COC(=O)[C@]3(O)CC [irinotecan] | – | – | – | generally well tolerated | significantly inhibited | significantly inhibited | inhibition of tumor growth |
